Measurements taken from US20110135583A1, “Anionic Isosorbide Derivatives and Their Use (II)” (COGNIS IP […], priority 2009, published 2011).

Assay: Foam quality and foam volume test of the isosorbide sulfosuccinate
Format: physicochemical
Conditions: 2.5% active substance in water, stirred to foam under standard conditions
Method: The foam quality and foam volume of this surfactant was tested as follows:
The isosorbide sulfosuccinate is dissolved in water at a rate of 2.5% active substance, and stirred to foam under standard conditions. According to a visual evaluation the surfactant of Example 1 has a foam quality of 4-5 on a scale of 1 (small bubbles, high cushion, stable foam) to 5 (large bubbles, unstable foam), and a foam volume equal to 32% of the foam for a standard surfactant (see FIG. 1).

## Isosorbide Lauroylester Sulfosuccinate [Example 1]
  foam volume: 32 % of the foam for a standard surfactant
Visual evaluation, scale of 1 (small bubbles, high cushion, stable foam) to 5 (large bubbles, unstable foam)
  foam quality: 4-5
